In brackets after ≈: the same amount, converted by molar mass. Entries after “also recorded” stand apart in the source; their conditions may differ.
Assays:
[1] = tested on: Sarcina lutea PCI 1001; experiment: MIC, agar dilution method; assay type: cell-based
[2] = tested on: Klebsiella pneumoniae PCI 602; experiment: MIC, agar dilution method; assay type: cell-based; conditions: PCI602, pH 7.0, 37° C., 18 hours
[3] = tested on: Aspergillus niger; experiment: MIC, agar dilution method; assay type: cell-based; conditions: pH 6.8, 27° C. 72 hours
[4] = tested on: Botrytis cinerea; experiment: MIC, agar dilution method; assay type: cell-based; conditions: pH 6.8, 27° C. 72 hours
[5] = tested on: Staphylococcus aureus; experiment: antibacterial activity; assay type: cell-based
[6] = tested on: Eimeria brunetti; experiment: anticoccidial activity; assay type: in vivo
[7] = tested on: Xanthomonas oryzae; experiment: microbe, parasite or virus in culture; assay type: cell-based; conditions: 72 h, pH 6.8
[8] = tested on: B. cereus T; experiment: MIC, agar dilution method; assay type: cell-based
[9] = tested on: Staphylococcus aureus FDA 209P; experiment: MIC, agar dilution method; assay type: cell-based; conditions: FDA209P, pH 7.0, 37° C., 18 hours
[10] = tested on: Bacillus subtilis PCI 219; experiment: MIC, agar dilution method; assay type: cell-based; conditions: PCI219, pH 7.0, 37° C., 18 hours
[11] = tested on: Piricularia oryzae; experiment: microbe, parasite or virus in culture; assay type: cell-based; conditions: 72 h, pH 6.8
[12] = tested on: Eimeria tenella K-2, E. acervulina and E. maxima; experiment: anticoccidial test in chicks, mixed infection (Example 5); assay type: in vivo, E. maxima (in chicks); parameters: key to Caecal lession: -: not infected; +: light; ++: middle; +++: heavy; conditions: for RIW (ratio of the increase of the body weight): vs healthy chicks
Protocol: The results are shown in Table 5 where the ratio of the increase of the body weight (RIW) is calculated as follows: (RIW (%)=[weight at the completion of the test (in average)]/[weight of healthy chicks (control) in average]×100%.

[13] = tested on: B. subtilis ATCC 6633; experiment: MIC, agar dilution method; assay type: cell-based; conditions: Bacillus subtilis, ATCC6633; pH 7.0, 37° C., 18 hours
[14] = tested on: Eimeria necatrix; experiment: anticoccidial activity; assay type: in vivo
[15] = tested on: poultry; experiment: growth-promoting effect in poultry; assay type: in vivo; conditions: 0.001 to 0.02% by weight of the diet
Description: Thus, AM-1042 is potentially of interest owing to its growth-promoting effect. For this purpose, the mode of administration is analogous to those described above.

With `O=C(/C=C/C=C/C=C/C1CCCCC1)NC1=CC(O)(/C=C/C=C/C=C/C(=O)NC2=C(O)CCC2=O)C2OC2C1=O` (stereo not shown) [AM-1042] the “activity upon Sarcina lutea” value [1] was “active”, the MIC ([1]; Micrococcus luteus, PCI1001, pH 7.0, 37° C., 18 hours) was 6.2 mg/L (≈ 11.3 µM) and the MIC [2] was greater than 100 mg/L. The MIC [3] was greater than 100 mg/L, the MIC [4] was greater than 100 mg/L and the “activity upon Staphylococcus aureus” value [5] was “active”. The activity upon coccidiosis [6] was “significantly active”, the MIC [7] was greater than 100 mg/L and the “activity upon Bacillus cereus” value [8] was “active”. It also gave an MIC ([8]; Bacillus cereus, pH 7.0, 37° C., 18 hours) of 3.1 mg/L (≈ 5.67 µM), an MIC [9] of 3.1 mg/L (≈ 5.67 µM) and an MIC [10] of 3.1 mg/L (≈ 5.67 µM). The MIC [11] was 100 mg/L (≈ 183 µM), the Caecal lession ([12]; 0.005 % AM-1042 (Test-5)) was “+” and the Survival ratio ([12]; 0.005 % AM-1042 (Test-5)) was 90%. The “RIW (ratio of the increase of the body weight)” value ([12]; 0.005 % AM-1042 (Test-5)) was 98.7%, the Caecal lession ([12]; 0.0075 % AM-1042 (Test-4)) was “-” and the Survival ratio ([12]; 0.0075 % AM-1042 (Test-4)) was 100%. The “RIW (ratio of the increase of the body weight)” value ([12]; 0.0075 % AM-1042 (Test-4)) was 99.9%, the Caecal lession ([12]; 0.01 % AM-1042 (Test-3)) was “-” and the Survival ratio ([12]; 0.01 % AM-1042 (Test-3)) was 100%. For the same molecule, the “RIW (ratio of the increase of the body weight)” value ([12]; 0.01 % AM-1042 (Test-3)) was 100.8%, the Caecal lession ([12]; 0.015 % AM-1042 (Test-2)) was “-” and the Survival ratio ([12]; 0.015 % AM-1042 (Test-2)) was 100%. For the same molecule, the “RIW (ratio of the increase of the body weight)” value ([12]; 0.015 % AM-1042 (Test-2)) was 100.5%, the Caecal lession ([12]; 0.02 % AM-1042 (Test-1)) was “-” and the Survival ratio ([12]; 0.02 % AM-1042 (Test-1)) was 100%. For the same molecule, the “RIW (ratio of the increase of the body weight)” value ([12]; 0.02 % AM-1042 (Test-1)) was 100.2%, the MIC [13] was 6.2 mg/L (≈ 11.3 µM) and the activity upon coccidiosis [14] was “significantly active”. The growth-promoting effect [15] was “capable of promoting the growth of poultry; also recorded: exhibits a growth-promoting effect”.
